Measured values from ChEMBL document CHEMBL1121737, “Synthesis and evaluation of some stable multisubstrate adducts as specific inhibitors of spermidine synthase” (J Med Chem, 1981).

Key:
Spermidine synthase = target: T1, Spermidine synthase (Rattus norvegicus, UniProt Q99MI5); assay: Inhibitory activity against spermidine synthase; details: read-out: I50
T1 sequence (Q99MI5 whole entry): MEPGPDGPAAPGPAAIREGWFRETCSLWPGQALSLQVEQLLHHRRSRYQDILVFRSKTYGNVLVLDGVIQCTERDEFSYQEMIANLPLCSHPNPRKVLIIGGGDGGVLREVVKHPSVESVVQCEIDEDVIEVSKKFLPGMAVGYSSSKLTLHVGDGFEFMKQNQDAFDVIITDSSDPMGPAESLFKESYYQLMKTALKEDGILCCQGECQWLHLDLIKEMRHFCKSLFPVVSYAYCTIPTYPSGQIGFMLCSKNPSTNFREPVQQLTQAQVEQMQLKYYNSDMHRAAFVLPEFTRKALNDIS

[1] = system: spermine synthase (Rattus norvegicus); assay: Inhibition of spermine synthase at 10 uM concentration of the compound; values are per cent of control
[2] = system: spermine synthase (Rattus norvegicus); assay: Inhibition of spermine synthase at 25 uM concentration of the compound; values are per cent of control
[3] = system: spermine synthase (Rattus norvegicus); assay: Inhibition of spermine synthase at 50 uM concentration of the compound; values are per cent of control
[4] = system: spermine synthase (Rattus norvegicus); assay: Inhibition of spermine synthase at 250 uM concentration of the compound; values are per cent of control
[5] = system: spermine synthase (Rattus norvegicus); assay: Inhibition of spermine synthase at 100 uM concentration of the compound; values are per cent of control
[6] = target: T2, Spermidine synthase (Rattus norvegicus) (UniProt Q99MI5); assay: Inhibition of spermidine synthase at 50 uM concentration of the compound; values are per cent of control
T2 sequence (whole entry): T1 sequence (Q99MI5 whole entry)

[7] = target: T2, Spermidine synthase (Rattus norvegicus); assay: Inhibition of spermidine synthase at 10 uM concentration of the compound; values are per cent of control
[8] = target: T2, Spermidine synthase (Rattus norvegicus); assay: Inhibition of spermidine synthase at 25 uM concentration of the compound; values are per cent of control
[9] = target: T2, Spermidine synthase (Rattus norvegicus); assay: Inhibition of spermidine synthase at 250 uM concentration of the compound; values are per cent of control
[10] = target: T2, Spermidine synthase (Rattus norvegicus); assay: Inhibition of spermidine synthase at 100 uM concentration of the compound; values are per cent of control
[11] = target: T2, Spermidine synthase (Rattus norvegicus); assay: Inhibition of spermidine synthase at 5 uM concentration of the compound; values are per cent of control

IC50 (Spermidine synthase) [µM] | residual activity [1] [%] | residual activity [2] [%] | residual activity [3] [%] | residual activity [4] [%] | residual activity [5] [%] | residual activity [6] [%] | residual activity [7] [%] | residual activity [8] [%] | residual activity [9] [%] | residual activity [10] [%] | residual activity [11] [%] | SMILES
250 | 94 | 88 | 65 | 25 | 44 | 93 | 98 | 99 | 56 | 80 | – | CCCCCC(CC)[S+](C)C[C@H]1O[C@H](n2cnc3c(N)ncnc32)[C@H](O)[C@@H]1O (stereo partly drawn)
– | – | – | – | – | – | – | – | 102 | – | 104 | – | CCCCCC(CC)SC[C@H]1OC(n2cnc3c(N)ncnc32)[C@H](O)[C@@H]1O (stereo partly drawn)
– | – | – | – | – | – | 1 | 3 | 3 | – | 1 | – | NCCCCCC(CCN)SC[C@H]1O[C@@H](n2cnc3c(N)ncnc32)[C@H](O)[C@@H]1O (stereo partly drawn)
15 | 93 | – | 60 | 14 | 41 | 16 | 68 | 31 | 4 | 8 | 84 | C[S+](C[C@H]1O[C@H](n2cnc3c(N)ncnc32)[C@H](O)[C@@H]1O)C(CCN)CCCCCN (stereo partly drawn)
